Results: patent US20150132342A1, “NOVEL IMMUNE ACTIVATORS: SUBSTITUTE 4-AMINOQUINAZOLINES” (The Regents of the University of California, priority 2013, published 2015)

Tests used:
Format in all cases: cell-based
TLR4/MD-2/CD14 = biological target: T1, TLR4/MD-2/CD14 (Homo sapiens, UniProt O00206+Q9Y6Y9); assay: hTLR4 HEK Blue reporter cells, NF-κB SEAP secretion (QuantiBlue OD630)
T1 construct: host or cells: HEK293 (HEK Blue hTLR4)
Experimental: In vitro assays using TLR reporter cell lines. Murine or humanTLR4 HEK Blue™ cells (Invivogen, 2.5×10^4 cells per well of a 96 well plate), or NF-κB/SEAPorter™ HEK 293 cells (Imgenex, San Diego, Calif.) for human TLR2, TLR3, TLR5, TLR7, TLR8, or TLR9 (5×10^4 cells per well of 96 well plate) were incubated with graded doses of the test compound. The culture supernatants were harvested after a 20-24 h incubation period. Secreted alkaline phosphatase (SEAP) activity in the supernatants was determined by a colorimetric assay, using either the SEAPorter Assay Kit (Imgenex, San Diego, Calif.), with absorbance read at 405 nm, or QuantiBlue (Invivogen), with absorbance read at 630 nm. In some experiments, graded concentrations of LPS-RS ([…], Invivogen) were used to test TLR4-specific binding of the hit compound.

HepG2 cells = assay: MTT assay in HepG2 cells; settings: compounds tested at 10 μM; normalized with OD570-650 of vehicle treatment; in % (unit assumed)
mBMDC = assay: IL-6 induction in mouse bone marrow derived dendritic cells (wild type or gene deficient)
From the text: (§1) Animals. Seven to 9 week-old C57BL/6 (wild type, WT) and Cd14^−/− (C57BL/6 background) mice were purchased from the Jackson Laboratories (Bar Harbor, Mass.). Tlr4^−/− mice (C57BL/6 background) were a gift from Dr. Shizuo Akira (Osaka University, Japan) and were backcrossed for 10 generations onto the C57BL/6 background at University of California, San Diego (UCSD). MD-2^−/− mice (C57BL/6 background) were originally generated by Dr. K. Miyake (University of Tokyo, Tokyo, Japan) and were kindly provided by Dr. L. Hajjar (University of Washington, Seattle, Wash.). Human TLR4 transgenic mice on murine TLR4/MD-2 null C57BL/6 background were kindly provided by Dr. L. Hajjar.^3 All animal experiments were approved by the UCSD Institutional Animal Care and Use Committee.
In vitro cytokine induction in bone marrow derived dendritic cells (BMDC) and macrophages (BMDM). BMDC or BMDM were prepared from C57BL/6 mice as described.^4 BMDC or BMDM (10^5 cells per well) were plated in 96-well plates in 200 μl complete RPMI1640 (Omega Scientific, Tarzana, Calif.) supplemented with 10% fetal calf serum (Sigma Aldrich), 100 U/mL penicillin and 100 μg/mL streptomycin (Life Technologies). The cells were incubated with graded concentrations of the compounds for 18 h at 37° C., 5% CO2. After 18 h incubation, the cell culture supernatants were collected. LPS (100 ng/mL, L2654, E coli; B6, Sigma) or MPLA (1 μg/mL synthetic MPLA, Invivogen) were used as positive controls. The levels of IL-6 or IP-10 in the culture supernatants were determined by ELISA (BD Biosciences, La Jolla, Calif.).^5 Finally, all levels of cytokine release were normalized to those of LPSstimulation within each experiment, set at 100.

human PBMC = assay: CD80 and CD83 expression in CD11c+ HLA-DR+ human PBMC (flow cytometry); settings: 5 μM overnight; CD11c+HLA-DR+ gated population
Experimental: FIG. 2. Compound 1a induces type I IFN and expression of co-stimulatory molecules. A) Human PBMC were incubated with compound 1a (10 μM), LPS (10 ng/mL), or vehicle overnight. The release of type I IFN in the culture supernatants was measured by luciferase release in L929-ISRE reporter cells. Data shown are mean±SEM of triplicates. B) Compound 1a- or vehicle-treated wild type or Tlr4^−/−mBMDC were stained for CD11c and either CD40, CD80, or CD86. The expression levels of CD40, CD80, or CD86 were evaluated in the gated CD11c^+ population. DMSO 0.5% served as the vehicle control. C) Human PBMC were incubated with compound 1a (5 μM) overnight. CD80 and CD83 expression in gated CD11c^+ HLA-DR^+ population was analyzed by flow cytometer. Data are representative of two independent experiments showing similar results.
To evaluate whether treatment of DCs with this compound can induce maturation in these cells, mBMDC prepared from wild type or TLR4 deficient mice were exposed to compound 1a and then assayed for expression of co-stimulatory molecules CD40, CD80, and CD86 in the CD11c+ population (FIG. 2B). […] Induction of co-stimulatory molecules by compound 1a was also confirmed in human PBMC.

mouse BMDC = assay: MTT viability of mouse BMDC; settings: 10 μM, 18 h incubation
human TLR4/MD-2 = biological target: T2, human TLR4/MD-2 (Homo sapiens, UniProt O00206+Q9Y6Y9); assay: BMDM from transgenic mice expressing human TLR4/MD-2 (IL-6, IP-10); settings: BMDM from human TLR4/MD-2 transgenic mice deficient for murine TLR4/MD-2
T2 construct: expressed in transfected cells; host or cells: bone marrow derived macrophages of human TLR4 transgenic mice on a murine TLR4/MD-2 null C57BL/6 background (gift of Dr. L. Hajjar)
T2 sequence (O00206 24-839): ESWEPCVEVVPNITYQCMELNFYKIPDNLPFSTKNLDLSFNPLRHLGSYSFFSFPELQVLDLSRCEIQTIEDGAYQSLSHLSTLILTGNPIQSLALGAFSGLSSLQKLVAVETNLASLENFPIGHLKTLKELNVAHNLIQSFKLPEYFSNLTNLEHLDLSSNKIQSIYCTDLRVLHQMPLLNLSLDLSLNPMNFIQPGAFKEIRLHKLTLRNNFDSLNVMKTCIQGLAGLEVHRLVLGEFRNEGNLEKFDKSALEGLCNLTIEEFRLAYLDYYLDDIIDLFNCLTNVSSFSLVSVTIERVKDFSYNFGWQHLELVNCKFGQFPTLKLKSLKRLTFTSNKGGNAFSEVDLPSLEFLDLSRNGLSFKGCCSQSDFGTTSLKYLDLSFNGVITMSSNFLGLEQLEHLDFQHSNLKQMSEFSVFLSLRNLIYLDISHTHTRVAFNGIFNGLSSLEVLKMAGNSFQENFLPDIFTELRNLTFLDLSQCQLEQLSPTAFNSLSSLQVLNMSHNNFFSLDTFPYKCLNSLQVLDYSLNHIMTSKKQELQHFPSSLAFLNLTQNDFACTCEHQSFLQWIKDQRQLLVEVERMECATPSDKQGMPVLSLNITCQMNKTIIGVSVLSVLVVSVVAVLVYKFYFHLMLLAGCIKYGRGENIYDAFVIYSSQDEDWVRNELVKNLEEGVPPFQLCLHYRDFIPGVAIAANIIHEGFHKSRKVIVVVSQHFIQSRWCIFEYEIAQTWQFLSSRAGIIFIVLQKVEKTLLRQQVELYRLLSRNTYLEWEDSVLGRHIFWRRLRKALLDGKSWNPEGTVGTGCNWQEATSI
T2 sequence (Q9Y6Y9 19-160): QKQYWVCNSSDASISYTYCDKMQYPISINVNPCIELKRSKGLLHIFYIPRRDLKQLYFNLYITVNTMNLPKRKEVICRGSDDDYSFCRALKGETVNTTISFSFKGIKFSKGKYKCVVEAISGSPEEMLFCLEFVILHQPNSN
From the text: as §1
In vitro cytokine induction in bone marrow derived dendritic cells (BMDC) and macrophages (BMDM). […] The levels of IL-6 or IP-10 in the culture supernatants were determined by ELISA (BD Biosciences, La Jolla, Calif.).^5 Finally, all levels of cytokine release were normalized to those of LPSstimulation within each experiment, set at 100.

T1 sequence (O00206 24-839): as the sequence (O00206 24-839) above
T1 sequence (Q9Y6Y9 19-160): as the sequence (Q9Y6Y9 19-160) above

CCOC(=O)c1nc(Nc2cc(Oc3ccccc3)cc([N+](=O)[O-])c2)c2ccccc2n1 [Compound 1a, Ethyl 4-((3-nitro-5-phenoxyphenyl)amino)quinazoline-2-carboxylate]
hTLR4 0.5 μM (TLR4/MD-2/CD14; 0.5 μM, Quantiblue OD630 of hTLR4 HEK Blue cells, normalized to LPS positive control=100): 49.1 | NF-κB activation induced by compound in presence of competitive antagonist LPS-RS (TLR4/MD-2/CD14; 10 μM compound, LPS-RS 12, 111, 1000 ng/mL, dose dependent): inhibited | HepG2 MT (HepG2 cells): 93.5 | Dependence of IL-6 production on CD14 and MD-2 (mBMDC; 10 μM, mBMDC genetically deficient for CD14 or MD-2): not to be dependent on CD14, but dependent on MD-2 | IL-6 secretion induced in mBMDC on genetic disruption of TLR4 (mBMDC; 10 μM, wild type vs TLR4 deficient mice): completely abrogated | Concentration inducing detectable levels of IL-6 (mBMDC; mBMDC, graded concentrations, compared with IL-8 in hPBMC): higher concentrations were required | Expression of CD80 and CD83 (human PBMC): increased expression of CD80 and CD83 | Viability by MTT assay (mouse BMDC): 117±2.6% | Activation of transgenic human TLR4/MD-2 complex relative to mouse TLR4/MD-2 (human TLR4/MD-2): to a greater extent
